For data set [1], the system named is SiHa cells. The experiment in a line: […]-GLO cell viability, single drugs (Example 1). Conditions: Homo sapiens, 72 h, read-out: IC50 Confidence Interval. Format: cell-based. The text has this:
(§1) To test the individual effects of artesunate and panobinostat, three cervical cancer cell model lines (Caski, SiHa, and HeLa cells) were obtained from the American Type Culture Collection (Manassas, Va.) and maintained in DMEM (Invitrogen) supplemented with 10% fetal bovine serum (Quality Biological, Inc., Gaitherburg, Md.) and penicillin/streptomycin (Invitrogen), in accordance with previous experiments. The cells were split every 3 to 5 days to prevent any of the lines from becoming fully confluent.
(§2) To prepare the cells for treatment, 6000 cells per well were seeded in 96-well plates (for each cell line). Cells were then incubated for a 24-hour period to allow them to adhere to the wells. The cells were then treated with various concentrations of artesunate or panobinostat. For artesunate, the concentrations used for treating each cell type were 80 μM, 40 μM, 20 μM, 10 μM, 5 μM, 2.5 μM, and 1.25 μM. […] Control wells consisted of DMEM, in which the DMSO concentration was the highest drug concentration (0.2% for artesunate, 0.064% for panobinostat) tested. Each concentration was performed in triplicate and the control was conducted in sextuplicate.
(§3) After an incubation time of 72 hours, the […]-GLO® Luminescent Cell Viability Assay (Promega) was conducted. The buffer/enzyme solution was mixed and applied to the cells according to the Promega protocol. Cells were then placed on the orbital shaker for 3 minutes, incubated for 30 minutes, and placed in the luminometer for reading.
(§4) To analyze the data, the background (from only the DMEM media) was subtracted from the luminescence of each well. The program GraphPad Prism 7 was then used to calculate the IC50 values and the cell viability curves for each drug and cell line. All readings were normalized based upon the control values.

Data set [2] concerns Caski cells. The experiment in a line: […]-GLO cell viability, single drugs (Example 1). It counts as cell-based. Conditions: Homo sapiens, Ca-Ski, 72 h, read-out: IC50 Confidence Interval.
From the text: as §1, §2, §3, §4

For data set [3], the system named is HeLa cells. The experiment in a line: […]-GLO cell viability, single drugs (Example 1). Format: cell-based. Conditions: 72 h.
From the text: as §1, §2, §3, §4

The subject of data set [4] is HPV 16- and HPV 18-positive cells. Conditions: in vitro experiments [7]; cited from earlier work.
For data set [5], the system named is HeLa cells. The experiment in a line: […]-GLO cell viability, artesunate/panobinostat dose pairings, CompuSyn analysis (Example 1). It counts as cell-based. The arrangement: key: fraction surviving, normalized to average of untreated controls. How it is done:
To test the combined effects of artesunate and panobinostat, HeLa cells were cultured as previously described. The cells were then seeded in 96-well plates as discussed above. After the 24-hour incubation period, the cells were treated by the following means. […] All possible pairings of each drug concentration were tested. […] All pairings were performed in triplicate and the control was performed in sextuplicate.
After 72 hours of incubation time, the […]-GLO® Luminescent Cell Viability Assay (Promega) was conducted as above. The combination effect of the drugs was analyzed using the CompuSyn program. The background (DMEM only) was subtracted as described previously and all experimental wells were normalized to the average of the controls (as above).

The conditions of data set [6]: toxicity to humans; cited from earlier work.
Data set [7] deals with SiHa cells. The experiment in a line: […]-GLO cell viability, drugs alone and in combination (Example 4). It counts as cell-based. The settings on record: Homo sapiens. How it is done: (§5) The IC50 values were calculated from the cell viability assays for each drug alone and in combination. […] Cells were then incubated for a 24-hour period to allow them to adhere to the wells. […] For the experiments involving artesunate and panobinostat, the concentrations used varied by cell type. […] The buffer/enzyme solution was mixed and applied to the cells according to the Promega protocol. Cells were then placed on the orbital shaker for 2 minutes and then placed in the luminometer for reading. To analyze the data, the background (from only the DMEM media) was subtracted from the luminescence of each well. […] All readings were normalized based upon the control values. […] Analyses were conducted using GraphPad Prism 9. The combination index and dose-reduction index values were calculated based using the summary of the data for all three cell types. […] Dose reduction values are the measure of how many folds the dose of each drug in a synergistic combination may be reduced compared with the doses of each drug alone. […] The values are shown in Table 4 for IC50 and in Table 5 for IC90. […] The methods of analysis are the same as those described above. […] A DMSO experimental stock was made in DMEM as a negative control. […] Analyses were conducted using GraphPad Prism 9. The combination index and dose-reduction index values were calculated based using the summary of the data for all three cell types. […] Dose reduction values are the measure of how many folds the dose of each drug in a synergistic combination may be reduced compared with the doses of each drug alone. […] The values are shown in Table 6 for IC50 and in Table 7 for IC90.

Data set [8] concerns HeLa cells. Described as above. It counts as cell-based. Conditions: Homo sapiens. How it is done: as §5
Data set [9] has as its system HPV precancers. The settings on record: self-administered by patients; published clinical trial [8]; cited from earlier work.
In data set [10] the test system is HEC/16E6E7 cells. The experiment in a line: […]-GLO cell viability, drugs alone and in combination (Example 4). It counts as cell-based. How it is done: The cell lines were treated with artesunate, vorinostat, and panobinostat individually and in combination. The IC50 values were calculated from the cell viability assays for each drug alone and in combination. […] Cells were then incubated for a 24-hour period to allow them to adhere to the wells. […] For the experiments involving artesunate and panobinostat, the concentrations used varied by cell type. […] After an incubation time of 72 hours, the […]-GLO® Luminescent Cell Viability Assay (Promega) was conducted. The buffer/enzyme solution was mixed and applied to the cells according to the Promega protocol. Cells were then placed on the orbital shaker for 2 minutes and then placed in the luminometer for reading. To analyze the data, the background (from only the DMEM media) was subtracted from the luminescence of each well. […] All readings were normalized based upon the control values. […] Analyses were conducted using GraphPad Prism 9. The combination index and dose-reduction index values were calculated based using the summary of the data for all three cell types. […] Dose reduction values are the measure of how many folds the dose of each drug in a synergistic combination may be reduced compared with the doses of each drug alone. By reducing dose, toxicity is reduced without compromising effect. The values are shown in Table 4 for IC50 and in Table 5 for IC90. […] The methods of analysis are the same as those described above. […] A DMSO experimental stock was made in DMEM as a negative control. […] Analyses were conducted using GraphPad Prism 9. The combination index and dose-reduction index values were calculated based using the summary of the data for all three cell types. […] Dose reduction values are the measure of how many folds the dose of each drug in a synergistic combination may be reduced compared with the doses of each drug alone. By reducing dose, toxicity is reduced without compromising effect. The values are shown in Table 6 for IC50 and in Table 7 for IC90.

One may read the IC50 as the midpoint of a concentration-inhibition curve. As usually defined, the IC90 is the concentration at which the effect reaches the 90% level.

Read-outs that look alike come from different tables or passages of the source.

In the case of `C[C@H]1[C@H](OC(=O)CCC(=O)O)O[C@@H]2O[C@@]3(C)CC[C@H]4[C@H](C)CC[C@@H]1[C@@]24OO3` [artesunate], the IC50 in data set [1] is 6.8 to 9.43 µM; in data set [2], 1.74 to 3.14 µM; in data set [3] (Homo sapiens, drug alone) it was ~5 µM; in data set [3] (Homo sapiens, read-out: IC50 Confidence Interval, HeLa, 95% confidence interval), 4.33 to 6.07 µM; in [3] (drug alone) it was 5.13 µM; in data set [7] (SiHa, 72 h, read-out: IC50 ART), 4.83 µM. Also, the IC50 worked out at 6.06 µM in data set [7] (SiHa, read-out: IC50 ART); 3.7 µM in [8] (HeLa, 72 h, read-out: IC50 ART); 4.55 µM in data set [8] (HeLa, read-out: IC50 ART); 4.93 µM in [10] (72 h, read-out: IC50 ART); 6.99 µM in [10] (read-out: IC50 ART). Moreover, in data set [4], the “killing of HPV-positive cells” value is “selectively kill”. Besides, the “Effect (fraction of HeLa cells still surviving)” value in data set [5] (artesunate 1.25 uM alone) came out at 0.7457; in data set [5] (artesunate 2.5 uM alone), 0.6418; in data set [5] (artesunate 5.0 uM alone) it was 0.5808; in data set [5] (artesunate 10.0 uM alone), 0.4287; in [5] (artesunate 20.0 uM alone), 0.3015. For the same compound, the “safety relative to artemether” value in data set [6] is “twice as safe as artemether”. Also, the “toxicity relative to chloroquinine” value in [6] was “one-fiftieth as toxic as chloroquinine”. Further, the IC90 in data set [7] (SiHa, 72 h, read-out: IC90 ART) came out at 30 µM; in [7] (SiHa, read-out: IC90 ART), 34.5 µM; in [8] (HeLa, 72 h, read-out: IC90 ART), 14.3 µM; in data set [8] (HeLa, read-out: IC90 ART), 15.5 µM; in data set [10] (72 h, read-out: IC90 ART), 77.6 µM; in [10] (read-out: IC90 ART), 158 µM. Further, the “cure of HPV precancers” value in [9] is on record as 70%.

As to `Cc1[nH]c2ccccc2c1CCNCc1ccc(/C=C/C(=O)NO)cc1` [panobinostat], the IC50 in [1] (95% confidence interval) is 0.0199 to 0.0257 µM; in data set [2] (Caski, 95% confidence interval) it was 0.00655 to 0.0125 µM; in data set [3] (Homo sapiens, 95% confidence interval, read-out: IC50 Confidence Interval), 0.00771 to 0.0132 µM; in [3] (Homo sapiens, drug alone, read-out: IC50) it was ~0.01 µM; in data set [3] (drug alone, read-out: IC50), 0.0101 µM; in data set [7] (Siha, PAN alone, 72 h, read-out: IC50 PAN) it was 17.8 µM. Further, the IC50 is 14.7 µM in [8] (Hela, PAN alone, 72 h, read-out: IC50 PAN) and 25 µM in data set [10] (HEC/16E6E7, PAN alone, 72 h, read-out: IC50 PAN). In addition, the “Effect (fraction of HeLa cells still surviving)” value in data set [5] (panobinostat 2.5 nM alone) was found to be 0.7864; in data set [5] (panobinostat 5.0 nM alone), 0.7379; in [5] (panobinostat 10.0 nM alone), 0.6177; in data set [5] (panobinostat 20.0 nM alone), 0.4359; in data set [5] (panobinostat 40.0 nM alone), 0.3322. Moreover, the IC90 in data set [7] (Siha, PAN alone, 72 h, read-out: IC90 PAN) amounted to 67.6 µM; in [8] (Hela, PAN alone, 72 h, read-out: IC90 PAN) it was 60.5 µM; in data set [10] (HEC/16E6E7, PAN alone, 72 h, read-out: IC90 PAN), 115 µM.

As for `O=C(CCCCCCC(=O)Nc1ccccc1)NO` [vorinostat], the IC90 in data set [7] (Siha, SAHA alone, read-out: IC90 SAHA) worked out at 13.2 µM; in data set [8] (Hela, SAHA alone, read-out: IC90 SAHA) it was 6.5 µM; in data set [10] (HEC/16E6E7, SAHA alone, read-out: IC90 SAHA), 8.54 µM. In addition, the IC50 in data set [10] (HEC/16E6E7, SAHA alone, read-out: IC50 SAHA) was found to be 2.31 µM.

The record behind these values is US20230233520A1, “COMBINATION THERAPY OF ARTEMISININ-RELATED COMPOUNDS AND HISTONE DEACETYLASE INHIBITORS FOR TREATMENT OF HPV-RELATED BENIGN, PREMALIGNANT, AND MALIGNANT DISEASES” (Georgetown University, priority 2020, published 2023).
